Assay results as given in ChEMBL document CHEMBL1156829 (Proc Natl Acad Sci U S A, 2008).
pEC50: −log10 of the molar value.

Key:
[1] = NOVARTIS: Cytotoxicity against human hepatocellular carcinoma cell line (Huh7); assay type: toxicity, cell-based, Huh-7; details: Huh7 cells (hepatocellular carcinoma cell line)
Plasmodium falciparum [2] = test: NOVARTIS: Inhibition of Plasmodium falciparum 3D7 (drug-susceptible) proliferation in erythrocyte-based infection assay; assay type: functional, organism-based; details: Plasmodium falciparum, 3D7
Plasmodium falciparum [3] = test: NOVARTIS: Inhibition of Plasmodium falciparum W2 (drug-resistant) proliferation in erythrocyte-based infection assay; assay type: functional, organism-based; details: Plasmodium falciparum, W2; read-out: EC50

Compound: O=c1c(=Cc2ccc(-c3ccc([N+](=O)[O-])cc3Cl)o2)sc2nc3ccccc3n12
- CC50 [1]: > 10000 nM
- pEC50 (Plasmodium falciparum [2]): < 5.95
- pEC50 (Plasmodium falciparum [3]): < 5.90

Compound: CC=C[C@H]1O[C@@](O)([C@@H](C)C(O)C(C)[C@H]2OC(=O)C(OC)=CC(C)=C[C@@H](C)[C@H](O)C(CC)[C@@H](O)[C@H](C)CC(C)=CC=C[C@@H]2OC)C[C@@H](O[C@H]2C[C@@H](O)[C@H](OC(N)=O)[C@@H](C)O2)[C@@H]1C (some centres undefined)
- CC50 [1]: > 10000 nM
- pEC50 (Plasmodium falciparum [2]): 5.93
- pEC50 (Plasmodium falciparum [3]): < 5.90

Compound: COc1ccc(-c2ccc(C=C3C(=O)NC(=S)NC3=O)o2)cc1Cl
- CC50 [1]: > 10000 nM
- pEC50 (Plasmodium falciparum [2]): < 5.98
- pEC50 (Plasmodium falciparum [3]): < 5.90

Compound: CN(C)CCN1CCN(c2cncc(-c3cccnc3)n2)CC1
- CC50 [1]: > 10000 nM
- pEC50 (Plasmodium falciparum [2]): < 5.95
- pEC50 (Plasmodium falciparum [3]): < 5.90

Compound: CC(=O)Nc1cccc(NC(=O)C(F)(F)F)c1
- CC50 [1]: > 10000 nM
- pEC50 (Plasmodium falciparum [2]): 5.93
- pEC50 (Plasmodium falciparum [3]): < 5.90

Compound: CC1CCCCN1CCCNc1ncc(C(=O)NCCc2ccccc2)c(Nc2ccccc2)n1 (centres undefined)
- CC50 [1]: > 10000 nM
- pEC50 (Plasmodium falciparum [2]): 5.95
- pEC50 (Plasmodium falciparum [3]): < 5.90

Compound: CN(C)CCCNc1ncc(C(=O)NCCc2ccccc2)c(NCC2CCCCC2)n1
- CC50 [1]: > 10000 nM
- pEC50 (Plasmodium falciparum [2]): 5.91
- pEC50 (Plasmodium falciparum [3]): < 5.90

Compound: CCCc1cc2c(=O)c(-c3cc4ccccc4o3)coc2cc1OC(C)C(=O)OCC (centres undefined)
- CC50 [1]: > 10000 nM
- pEC50 (Plasmodium falciparum [2]): < 5.93
- pEC50 (Plasmodium falciparum [3]): < 5.90

Compound: c1ccc(COCC[N+]2(Cc3ccccc3)CCCCC2)cc1
- CC50 [1]: > 10000 nM
- pEC50 (Plasmodium falciparum [2]): < 5.94
- pEC50 (Plasmodium falciparum [3]): < 5.90

Compound: COc1cc2c(cc1/C=C(/C#N)c1cccc(C)c1)OCO2
- CC50 [1]: > 10000 nM
- pEC50 (Plasmodium falciparum [2]): < 5.97
- pEC50 (Plasmodium falciparum [3]): < 5.90

Compound: COc1ccc(CN2CCc3nnc(CCc4ccccc4)n3CC2)c(F)c1
- CC50 [1]: > 10000 nM
- pEC50 (Plasmodium falciparum [2]): < 5.98
- pEC50 (Plasmodium falciparum [3]): < 5.90

Compound: COc1ccc2nc(NC(=O)c3ccc(C#N)cc3)sc2c1
- CC50 [1]: > 10000 nM
- pEC50 (Plasmodium falciparum [2]): < 5.98
- pEC50 (Plasmodium falciparum [3]): < 5.90

Compound: O=C(Nc1ccc2c(c1)S(=O)(=O)c1cc(NC(=O)c3cccs3)ccc1-2)c1cccs1
- CC50 [1]: > 10000 nM
- pEC50 (Plasmodium falciparum [2]): 5.96
- pEC50 (Plasmodium falciparum [3]): < 5.90

Compound: CCOc1ccc2cc(C#N)c(SCC(=O)N3CC(=O)Nc4ccccc43)nc2c1
- CC50 [1]: > 10000 nM
- pEC50 (Plasmodium falciparum [2]): < 5.96
- pEC50 (Plasmodium falciparum [3]): < 5.90

Compound: C=CCOC(=O)C1=C(C)N2CCSC2=C(C#N)C1c1ccco1 (centres undefined)
- CC50 [1]: > 10000 nM
- pEC50 (Plasmodium falciparum [2]): 5.92
- pEC50 (Plasmodium falciparum [3]): < 5.90

Compound: O=C(Nc1ccc2c3c(cccc13)CC2)c1cccc2ccccc12
- CC50 [1]: > 10000 nM
- pEC50 (Plasmodium falciparum [2]): < 5.92
- pEC50 (Plasmodium falciparum [3]): < 5.90

Compound: COc1cc(C(=O)/C=C/Nc2ccc(N(C)C)cc2)cc(OC)c1OC
- CC50 [1]: > 10000 nM
- pEC50 (Plasmodium falciparum [2]): < 5.92
- pEC50 (Plasmodium falciparum [3]): < 5.90

Compound: Cc1ccc2oc(=O)c3cnn(CC(=O)Nc4ccc(F)cc4Cl)c3c2c1
- CC50 [1]: > 10000 nM
- pEC50 (Plasmodium falciparum [2]): < 5.94
- pEC50 (Plasmodium falciparum [3]): < 5.90

Compound: COc1cccc(/C=C2/SC(=Nc3ccccc3)NC2=O)c1OC
- CC50 [1]: > 10000 nM
- pEC50 (Plasmodium falciparum [2]): < 5.94
- pEC50 (Plasmodium falciparum [3]): < 5.90

Compound: CC(C)CNC(=O)c1cnc(NCCCN2CCCCC2C)nc1Nc1ccccc1 (centres undefined)
- CC50 [1]: > 10000 nM
- pEC50 (Plasmodium falciparum [2]): 5.94
- pEC50 (Plasmodium falciparum [3]): < 5.90

Compound: CCOC(=O)c1c(NC(=O)Cc2ccc([N+](=O)[O-])cc2)sc2c1CCCC2
- CC50 [1]: > 10000 nM
- pEC50 (Plasmodium falciparum [2]): < 5.98
- pEC50 (Plasmodium falciparum [3]): < 5.90

Compound: COc1ccccc1-c1nnc(Nc2nc3cc4c(cc3s2)OCO4)o1
- CC50 [1]: > 10000 nM
- pEC50 (Plasmodium falciparum [2]): < 5.98
- pEC50 (Plasmodium falciparum [3]): < 5.90

Compound: CNC(=O)[C@@H]1C[C@@H](NCc2ccc(OC)cc2)CN1Cc1ccccc1
- CC50 [1]: > 10000 nM
- pEC50 (Plasmodium falciparum [2]): < 5.96
- pEC50 (Plasmodium falciparum [3]): < 5.90

Compound: COc1ccc(-n2nc(C(=O)NCC(=O)Nc3ccc(F)cc3)c3ccccc3c2=O)cc1Cl
- CC50 [1]: > 10000 nM
- pEC50 (Plasmodium falciparum [2]): < 5.94
- pEC50 (Plasmodium falciparum [3]): < 5.90

Compound: COCCn1c(=S)[nH]c2cc(C(=O)NCCc3ccc(S(N)(=O)=O)cc3)ccc2c1=O
- CC50 [1]: > 10000 nM
- pEC50 (Plasmodium falciparum [2]): < 5.97
- pEC50 (Plasmodium falciparum [3]): < 5.90

Compound: COc1ccc(C2C(C(=O)O)c3ccccc3C(=O)N2c2ccc(C)cc2)cc1OC (centres undefined)
- CC50 [1]: > 10000 nM
- pEC50 (Plasmodium falciparum [2]): < 5.97
- pEC50 (Plasmodium falciparum [3]): < 5.90

Compound: COc1ccc(S(=O)(=O)NCC2CCC(C(=O)NCC(OC)OC)CC2)cc1 (centres undefined)
- CC50 [1]: > 10000 nM
- pEC50 (Plasmodium falciparum [2]): < 5.93
- pEC50 (Plasmodium falciparum [3]): < 5.90

Compound: COc1ccc(CN2CC(=O)N(c3ccc(Cl)cc3)C2=S)cc1OC
- CC50 [1]: > 10000 nM
- pEC50 (Plasmodium falciparum [2]): < 5.93
- pEC50 (Plasmodium falciparum [3]): < 5.90

Compound: COc1ccc([C@@H]2C[C@H](OC(=O)c3ccc4c(c3)OCO4)C(=O)N2C)cc1
- CC50 [1]: > 10000 nM
- pEC50 (Plasmodium falciparum [2]): 5.93
- pEC50 (Plasmodium falciparum [3]): < 5.90

Compound: NC(=O)/C(=C\c1cccc2ccccc12)NC(=O)c1ccccc1
- CC50 [1]: > 10000 nM
- pEC50 (Plasmodium falciparum [2]): < 5.94
- pEC50 (Plasmodium falciparum [3]): < 5.90

Compound: O=c1c2c3c(sc2ncn1CC1CCCCC1)CC(NCc1cccnc1)CC3 (centres undefined)
- CC50 [1]: > 10000 nM
- pEC50 (Plasmodium falciparum [2]): < 5.98
- pEC50 (Plasmodium falciparum [3]): < 5.90

Compound: CCOC(=O)N1CCN(C(=O)CCCCn2c(=S)[nH]c3ccsc3c2=O)CC1
- CC50 [1]: > 10000 nM
- pEC50 (Plasmodium falciparum [2]): < 5.95
- pEC50 (Plasmodium falciparum [3]): < 5.90

Compound: CCOC(=O)c1sc(NC(=O)CSc2nnc(CNC(=O)COc3ccccc3)n2C)c(C(=O)OCC)c1C
- CC50 [1]: > 10000 nM
- pEC50 (Plasmodium falciparum [2]): < 5.97
- pEC50 (Plasmodium falciparum [3]): < 5.90

Compound: Cc1ccc(S(=O)(=O)Nc2nc3n(n2)C(c2ccccc2)C=C(c2ccccc2)N3)cc1 (centres undefined)
- CC50 [1]: > 10000 nM
- pEC50 (Plasmodium falciparum [2]): < 5.97
- pEC50 (Plasmodium falciparum [3]): < 5.90

Compound: CC(C)CN(CC(O)CN(CCN1CCOCC1)S(=O)(=O)Cc1ccccc1)C(=O)C1CCCN1C(=O)OC(C)(C)C (centres undefined)
- CC50 [1]: > 10000 nM
- pEC50 (Plasmodium falciparum [2]): < 5.95
- pEC50 (Plasmodium falciparum [3]): < 5.90

Compound: O=C1OC(c2ccccc2)=NC1=C(Cl)Cl
- CC50 [1]: > 10000 nM
- pEC50 (Plasmodium falciparum [2]): < 5.94
- pEC50 (Plasmodium falciparum [3]): < 5.90

Compound: CCC(C)(C#CCN1CCCC1)OC(C)=O (centres undefined)
- CC50 [1]: > 10000 nM
- pEC50 (Plasmodium falciparum [2]): < 5.98
- pEC50 (Plasmodium falciparum [3]): < 5.90

Compound: CC(=O)OC1C(NC(=O)c2cc([N+](=O)[O-])c(N(C)C)c([N+](=O)[O-])c2)OC(C(=O)N2CCOCC2)C(OC(C)=O)C1OC(C)=O (centres undefined)
- CC50 [1]: > 10000 nM
- pEC50 (Plasmodium falciparum [2]): < 5.96
- pEC50 (Plasmodium falciparum [3]): < 5.90

Compound: COc1ccc(/C=C\c2cc[n+](C)cc2)cc1OC
- CC50 [1]: > 10000 nM
- pEC50 (Plasmodium falciparum [2]): 5.96
- pEC50 (Plasmodium falciparum [3]): < 5.90

Compound: CC1CC(C)CN(S(=O)(=O)c2ccc(C(=O)Nc3ccc(-c4nc5ccccc5o4)cc3)cc2)C1 (centres undefined)
- CC50 [1]: > 10000 nM
- pEC50 (Plasmodium falciparum [2]): 5.92
- pEC50 (Plasmodium falciparum [3]): < 5.90

Compound: Cc1ccc(-c2nn(CC(=O)Nc3cccc(C)c3)c(=O)c3ccccc23)cc1
- CC50 [1]: > 10000 nM
- pEC50 (Plasmodium falciparum [2]): < 5.96
- pEC50 (Plasmodium falciparum [3]): < 5.90

Compound: CCOC(=O)C[n+]1cc(CC)sc1N
- CC50 [1]: > 10000 nM
- pEC50 (Plasmodium falciparum [2]): < 5.97
- pEC50 (Plasmodium falciparum [3]): < 5.90

Compound: COC(=O)C1=C(C(=O)OC)SC(=C2C(=S)C(C)(C)Nc3cc(C)ccc32)S1
- CC50 [1]: > 10000 nM
- pEC50 (Plasmodium falciparum [2]): < 5.94
- pEC50 (Plasmodium falciparum [3]): < 5.90

Compound: Cc1ccc(-n2c(SCc3cc(=O)n4ccccc4n3)nc3ccsc3c2=O)cc1C
- CC50 [1]: > 10000 nM
- pEC50 (Plasmodium falciparum [2]): < 5.93
- pEC50 (Plasmodium falciparum [3]): < 5.90

Compound: O=C(O)c1ccc(C=NNc2ccc([N+](=O)[O-])cc2)cc1
- CC50 [1]: > 10000 nM
- pEC50 (Plasmodium falciparum [2]): < 5.94
- pEC50 (Plasmodium falciparum [3]): < 5.90

Compound: COc1ccccc1NC(=O)c1n[nH]c(=O)c2ccccc12
- CC50 [1]: > 10000 nM
- pEC50 (Plasmodium falciparum [2]): < 5.98
- pEC50 (Plasmodium falciparum [3]): < 5.90

Compound: O=C1NCCCCC1N(Cc1cccc(Oc2ccccc2)c1)C(=O)c1ccc(F)cc1 (centres undefined)
- CC50 [1]: > 10000 nM
- pEC50 (Plasmodium falciparum [2]): < 5.97
- pEC50 (Plasmodium falciparum [3]): < 5.90

Compound: CC(=O)Nc1cccc(NC(=O)CSc2ccc3nnc(-c4ccc(F)cc4)n3n2)c1
- CC50 [1]: > 10000 nM
- pEC50 (Plasmodium falciparum [2]): < 5.98
- pEC50 (Plasmodium falciparum [3]): < 5.90

Compound: COc1cccc(N2C(=O)/C(=C/c3cccnc3)SC2=S)c1
- CC50 [1]: > 10000 nM
- pEC50 (Plasmodium falciparum [2]): < 5.94
- pEC50 (Plasmodium falciparum [3]): < 5.90

Compound: O=C(NN=Cc1ccc(Br)cc1)c1ccco1
- CC50 [1]: > 100000 nM
- pEC50 (Plasmodium falciparum [2]): 4.94
- pEC50 (Plasmodium falciparum [3]): < 4.90

Compound: Cn1c(=O)n(C)c2cc(C=NN=c3[nH]cc(-c4ccccc4)s3)ccc21
- CC50 [1]: > 10000 nM
- pEC50 (Plasmodium falciparum [2]): < 5.97
- pEC50 (Plasmodium falciparum [3]): < 5.90

Compound: CCOc1ccc(Nc2nc(N3CCCCC3)nc(N3CCCCC3)n2)cc1
- CC50 [1]: > 10000 nM
- pEC50 (Plasmodium falciparum [2]): 5.93
- pEC50 (Plasmodium falciparum [3]): < 5.90

Compound: C#CC(C)(C)NS(=O)(=O)c1cc(-c2nnc(Nc3cccc(C)c3)c3ccccc23)ccc1C
- CC50 [1]: > 10000 nM
- pEC50 (Plasmodium falciparum [2]): 5.98
- pEC50 (Plasmodium falciparum [3]): < 5.90
